Biological target: T1, ALK5 (Homo sapiens, UniProt P36897)
T1 construct: An expression construct containing full-length ALK5 C-terminally tagged with HA was transfected into COS7 cells; made in house; host or cells: COS7 cells (transfected; isolated by anti-HA immunoprecipitation)
T1 sequence (P36897 34-503): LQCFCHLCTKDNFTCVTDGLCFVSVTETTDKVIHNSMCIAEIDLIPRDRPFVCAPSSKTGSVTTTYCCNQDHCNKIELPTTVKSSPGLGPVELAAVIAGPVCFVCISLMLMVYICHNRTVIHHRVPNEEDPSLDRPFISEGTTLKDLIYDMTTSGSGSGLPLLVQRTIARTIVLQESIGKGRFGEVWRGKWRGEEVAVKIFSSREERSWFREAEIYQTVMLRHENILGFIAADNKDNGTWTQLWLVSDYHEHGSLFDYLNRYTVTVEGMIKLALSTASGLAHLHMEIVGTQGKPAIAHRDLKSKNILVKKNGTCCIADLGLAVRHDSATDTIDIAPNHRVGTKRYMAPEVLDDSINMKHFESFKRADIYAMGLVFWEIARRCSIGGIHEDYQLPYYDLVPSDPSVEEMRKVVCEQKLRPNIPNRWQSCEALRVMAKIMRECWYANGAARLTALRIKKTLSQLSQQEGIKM
Experiment: TGF-β (ALK5) phosphorylation: GST-ALK5 autophosphorylation screen and in vitro kinase of HA-ALK5 (IC50)
Type: biochemical
Details: not given
From the text: The autophosphorylation of GST-ALK5 was developed for primary screening of the compounds that inhibit TGF-β signaling by interacting with ALK5. HA-ALK5 assay is a secondary screening assay to confirm the inhibitory compounds that were selected from the primary screening, and also for the determination of IC50 for each compound.
Autophosphorylation Assay of GST-ALK5
The cytoplasmic domain of ALK5 was fused to glutathione S-transferase (GST) and the GST-ALK5 fusion protein was expressed in a baculovirus expression system. GST-ALK5 was isolated with glutathione Sepharose 4B beads (Pharmacia Biotech, Sweden) and stored at −80° C. until use.
For detection of GST-ALK5 autophosphorylation and screening of inhibitory compounds, an aliquot of GST-ALK5 in 1× kinase buffer including [^33P]-γ-ATP was added to 96-well plates in the presence or absence of compounds. The mixture was then incubated at room temperature for 30 min and transferred to each well of a Filterplate with vacuum. The Filterplate was then washed 3 times and radioactivity in each well was counted in a Packard TopCount.
In Vitro Kinase of HA-ALK5
An expression construct containing full-length ALK5 C-terminally tagged with HA was transfected into COS7 cells, and HA-ALK5 was isolated by immunoprecipitation with anti-HA antibodies. Aliquots of immunoprecipitated HA-ALK5 in 1× kinase buffer plus [^33P]-γ-ATP was added to 96-well plates in the presence or absence of different concentrations of testing compounds, and incubated at room temperature for 60 min. The reaction mixture was then transferred to a Filterplate. The plate was washed three times and radioactivity in each well counted. IC50 for each compound was determined using the Prism3 program.

IC50 [µM] | SMILES
< 10 | Cc1ccc(-c2nc3ccccc3c(Nc3ccncc3)c2F)o1 [Compound 55, [3-Fluoro-2-(5-methyl-furan-2-yl)-quinolin-4-yl]-pyridin-4-yl-amine]
< 10 | Fc1c(-c2cccc(Cl)c2)nc2ccccc2c1Nc1ccncc1 [Compound 7, [2-(3-Chloro-phenyl)-3-fluoro-quinolin-4-yl]-pyridin-4-yl-amine]
< 10 | Fc1c(-c2ccc(Cl)s2)nc2ccccc2c1Nc1ccncc1 [Compound 51, [2-(5-Chloro-thiophen-2-yl)-3-fluoro-quinolin-4-yl]-pyridin-4-yl-amine]

Tested on: TGF-β stimulated normal human lung fibroblasts (NHLF)
Experiment: Cell-based assays in TGF-β stimulated NHLF (P-Smad2, PAI-1, collagen, fibronectin)
Details: Fibroblast, P-Smad2, PAI-1, collagen and fibronectin assays
Method: ELISA Assay for TGF-β Stimulated Smad2 Phosphorylation
Serum-starved normal human lung fibroblasts (NHLF) in 24-well plate were treated with or without different concentrations of testing compounds for 30 min. The cells were then stimulated with TGF-β for one hour. After fixing, permeabilizing, and blocking, the cells were incubated with phospho-Smad2 specific antibodies followed by HRP-conjugated secondary antibody. The extent of Smad2 phosphorylation was then detected using HRP substrate and read with an ELISA plate reader. IC50 for each testing compound was determined using the PRISM3 program.
ELISA Assay for TGF-β Stimulated PAI-1 Secretion
Serum-starved NHLF in 24-well plates were treated with or without different concentrations of testing compounds for 30 min. The cells were then stimulated with TGF-β and incubated in a 37° C. incubator for 24 hours. The media were collected and added to 96-well plates coated with anti-PAI-1 antibodies. The secreted PAI-1 was then detected with another PAI-1 specific antibody followed by HRP-conjugated secondary antibody. The secretion of PAI-1 was detected using HRP substrate and read with an ELISA plate reader. IC50 for each testing compound was determined using the PRISM3 program.
SIRCOL Collagen Assay for TGF-β Stimulated Cells
Serum-starved NHLF in 24-well plates were treated with or without different concentrations of testing compounds for 30 min. The cells were then stimulated with TGF-β and incubated for 24 hours. The media were collected and SIRCOL dye reagent was added. After spinning and washing, the pellets were resuspended in alkali reagent and read with an ELISA plate reader. IC50 for each testing compound was determined using the PRISM3 program.
Detection of TGF-β Stimulated Fibronectin Expression
Serum-starved NHLF in 24-well plates were treated with or without different concentrations of testing compounds for 30 min. The cells were then stimulated with TGF-β and incubated for 24 hours. […] The signal was then detected using an ELISA reader. IC50 for each testing compound was determined using the PRISM3 program. […]

SMILES | IC50 [µM]
Cc1ccc(-c2nc3ccccc3c(Nc3ccncc3)c2F)o1 [Compound 55, [3-Fluoro-2-(5-methyl-furan-2-yl)-quinolin-4-yl]-pyridin-4-yl-amine] | < 10
Fc1c(-c2cccc(Cl)c2)nc2ccccc2c1Nc1ccncc1 [Compound 7, [2-(3-Chloro-phenyl)-3-fluoro-quinolin-4-yl]-pyridin-4-yl-amine] | < 10
Fc1c(-c2ccc(Cl)s2)nc2ccccc2c1Nc1ccncc1 [Compound 51, [2-(5-Chloro-thiophen-2-yl)-3-fluoro-quinolin-4-yl]-pyridin-4-yl-amine] | < 10
